Earlier results, collected in Sander's compilation of Henry's law constants (doi:10.1016/s0016-7037(99)00330-0).

Assay: Henry solubility constant Hcp at 298.15 K (mol/(m3 Pa))
Conditions: reference: Plyasunov and Shock (2000); cited value

Henry solubility constant Hcp	Structure (SMILES)
0.0018	c1ccccc1 [benzene]
0.85	CC(C)CO [2-methyl-1-propanol]
5.3e-06	CCCCCC1CCCC1 [pentylcyclopentane]
9.7e-05	C#CCCCCCCC [1-nonyne]
0.00014	CC1=CCCCC1 [1-methylcyclohexene]
9.7e-07	CCCCC(C)CCC (stereo not drawn) [4-methyloctane]
1.1e-05	C[C@H]1CC[C@H](C)CC1 [trans-1,4-dimethylcyclohexane]
0.34	CCCC(O)CCC [4-heptanol]
1.2	CC(C)O [2-propanol]
0.35	CC(C)CC(C)O (stereo not drawn) [4-methyl-2-pentanol]
0.001	C1=CCC=CC1 [1,4-cyclohexadiene]
0.0022	C1=CC=CCC=C1 [1,3,5-cycloheptatriene]
1.2e-05	CCCC [butane]
5.6e-05	C=CCCCC=C [1,6-heptadiene]
0.00084	CC(C)c1ccccc1 [(2-propyl)-benzene]
0.99	CCC(C)O (stereo not drawn) [2-butanol]
0.00047	C=C(C)C1CC=C(C)CC1 (stereo not drawn) [1-methyl-4-(1-methylethenyl)-cyclohexene]
0.0002	C1=CCCCCC1 [cycloheptene]
0.00018	C1=CCC=C1 [1,3-cyclopentadiene]
0.00049	CC#CCCCC [2-heptyne]
0.00022	CCC#CC(C)C [2-methyl-3-hexyne]
0.31	CCCCC(O)CC (stereo not drawn) [3-heptanol]
1.9	CCO [ethanol]
1.5e-05	C=CCC(C)C [4-methyl-1-pentene]

Henry solubility constant Hcp	Structure (SMILES)
6.2e-06	CC1CCC(C)(C)C1 (stereo not drawn) [1,1,3-trimethylcyclopentane]
0.00051	CCCCCc1ccccc1 [pentylbenzene]
2.7e-06	CCCCC(C)CC (stereo not drawn) [3-methylheptane]
1.1e-06	CCCCCCCCCC [decane]
9.3e-06	CC1CCCC(C)(C)C1 (stereo not drawn) [1,1,3-trimethylcyclohexane]
5.6e-05	C=CC [propene]
0.00014	CCC#CC(C)(C)C [2,2-dimethyl-3-hexyne]
5.5e-05	C1CCCC1 [cyclopentane]
0.41	CCCCCCCCO [1-octanol]
0.0013	CCc1ccccc1 [ethylbenzene]
0.00015	C=C1CCC2(C(C)C)CC12 (stereo not drawn) [4-methylene-1-(1-methylethyl)-bicyclo[3.1.0]hexane]
9.3e-07	CCCCCCCCCCCCCC [tetradecane]
5.7e-05	C=C(C)C [2-methylpropene]
5.3e-06	CCC(C)(C)CC [3,3-dimethylpentane]
5.5e-05	CC(C)C#CC(C)(C)C [2,2,5-trimethyl-3-hexyne]
0.00029	CC(C)Cc1ccccc1 [(2-methylpropyl)-benzene]
0.65	CCCC(C)O (stereo not drawn) [2-pentanol]
0.00023	C=C1C2CCC(C2)C1(C)C (stereo not drawn) [2,2-dimethyl-3-methylene-bicyclo[2.2.1]heptane]
2.4e-05	CC1CCCCC1 [methylcyclohexane]
1.2e-06	CCCCCCCCCCCC [dodecane]
0.46	CCCCC(CC)CO (stereo not drawn) [2-ethyl-1-hexanol]
0.0004	C=CC(=C)CCC=C(C)C [7-methyl-3-methylene-1,6-octadiene]
3.1e-06	CCCC(C)(C)C [2,2-dimethylpentane]
0.42	CCCC(O)CC (stereo not drawn) [3-hexanol]

Henry solubility constant Hcp	Structure (SMILES)
4.2e-05	C=CCC [1-butene]
7.6e-06	CC(C)C(C)C [2,3-dimethylbutane]
0.00041	C#C [ethyne]
2.1e-06	CCCCCCCCC [nonane]
0.66	CCCCCCO [1-hexanol]
1.5	CCCO [1-propanol]
0.00016	C1=CCCC1 [cyclopentene]
0.89	CCCCCO [1-pentanol]
0.00062	C#CCC [1-butyne]
7.7e-06	CCC(C)C [2-methylbutane]
0.00079	CC1=CCC(=C(C)C)CC1 [1-methyl-4-(1-methylethylidene)-cyclohexene]
0.41	CCCCCC(C)O (stereo not drawn) [2-heptanol]
0.00075	C#CC [propyne]
0.71	CCC(C)CO (stereo not drawn) [2-methyl-1-butanol]
4.9e-05	CC1(C)C2CC3C(C2)C31C [tricyclene]
1.9e-05	C=CC(C)C [3-methyl-1-butene]
1.1e-05	C=CCCCCCC [1-octene]
0.00096	Cc1ccc(C(C)C)cc1 [1-methyl-4-(1-methylethyl)-benzene]
4e-06	CCCCCCCC [octane]
3.3e-06	CC(C)CC(C)C [2,4-dimethylpentane]
9.3e-05	C1CCCCCCC1 [cyclooctane]
3.3e-05	C=C(C)CCC [2-methyl-1-pentene]
0.0003	C#CCCCC [1-hexyne]
2.8e-05	CC1CCCC1 [methylcyclopentane]

Henry solubility constant Hcp	Structure (SMILES)
0.54	CCCCCCCO [1-heptanol]
8.6e-05	CCCCCCCCCCc1ccccc1 [decylbenzene]
0.52	CCCCC(C)O (stereo not drawn) [2-hexanol]
0.0016	Cc1ccc(C)c(C)c1 [1,2,4-trimethylbenzene]
4.3e-06	CC(C)C(C)C(C)C [2,3,4-trimethylpentane]
0.00022	C1=CCCCC1 [cyclohexene]
0.00012	C#CCCCCCC [1-octyne]
4.8e-05	C=C [ethene]
3e-06	CC(C)CC(C)(C)C [2,2,4-trimethylpentane]
9.2e-06	CC(C)C [2-methylpropane]
5.6e-06	CCC(C)(C)C [2,2-dimethylbutane]
2.4e-05	C=CCCC [1-pentene]
0.00012	C1CC1 [cyclopropane]
0.003	C#CCCCCCC#C [1,8-nonadiyne]
0.00018	C#CCCCCC [1-heptyne]
0.00041	C#CC=C [3-buten-1-yne]
0.00053	CCC(C)c1ccccc1 (stereo not drawn) [(1-methylpropyl)-benzene]
2.8e-06	CC(C)CCC(C)(C)C [2,2,5-trimethylhexane]
0.0014	Cc1cccc(C(C)C)c1 [1-methyl-3-(1-methylethyl)-benzene]
0.54	CCC(CC)CO [2-ethyl-1-butanol]
0.00018	CC1=CCC(C(C)C)C=C1 (stereo not drawn) [α-phellandrene]
5.9e-06	CCC(C)CC [3-methylpentane]
0.0016	Cc1ccccc1C(C)C [1-methyl-2-(1-methylethyl)-benzene]
2.5e-05	C=CCCCCC [1-heptene]

Henry solubility constant Hcp	Structure (SMILES)
5.7e-06	CCC(C)C(C)C (stereo not drawn) [2,3-dimethylpentane]
4.6	OC1CCCCCC1 [cycloheptanol]
0.00079	CC(C)(C)c1ccccc1 [(1,1-dimethylethyl)-benzene]
0.35	CCCCCCC(C)O (stereo not drawn) [2-octanol]
5.7e-06	CCCC(C)C [2-methylpentane]
0.0004	CCCCCCc1ccccc1 [hexylbenzene]
0.00051	CC1=CC=C(C(C)C)CC1 [1-methyl-4-(1-methylethyl)-1,3-cyclohexadiene]
2.9e-06	CCCCC(C)C [2-methylhexane]
0.0029	C=Cc1ccccc1 [ethenylbenzene]
0.00055	CCC#CCC [3-hexyne]
0.00091	CCCc1ccccc1 [propylbenzene]
8.7e-06	CCCCC [pentane]
4.9e-06	CCCCCCC [heptane]
0.55	CCC(O)CC [3-pentanol]
4.2	OC1CCCC1 [cyclopentanol]
0.7	CC(C)CCO [3-methyl-1-butanol]
6e-06	CC(C)(C)C [dimethylpropane]
1.2e-05	C=CCCCCCCC [1-nonene]
3.4e-05	CC(C)(C)C#CC(C)(C)C [2,2,5,5-tetramethyl-3-hexyne]
4.5e-06	CCCC(C)CC (stereo not drawn) [3-methylhexane]
2.3e-05	CC=CCCCC [2-heptene]

Structure (SMILES)	Henry solubility constant Hcp
Cc1cccc(C)c1 [1,3-dimethylbenzene]	0.0014
Cc1ccccc1C [1,2-dimethylbenzene]	0.002
CCC(O)(CC)CC [3-ethyl-3-pentanol]	0.3
CCCCc1ccccc1 [butylbenzene]	0.00071
Cc1ccc(C)cc1 [1,4-dimethylbenzene]	0.0014
CCC(C)(C)O [2-methyl-2-butanol]	0.71
Cc1cc(C)cc(C)c1 [1,3,5-trimethylbenzene]	0.0013
C=CC(=C)C [2-methyl-1,3-butadiene]	0.00013
c1ccc2c(c1)CCCC2 [1,2,3,4-tetrahydronaphthalene]	0.0064
C=CC=C [1,3-butadiene]	0.00014
Cc1ccccc1 [methylbenzene]	0.0016
